# Laboratory results from US12729377B2, “RNAi agents and compositions for inhibiting expression of angiopoietin-like 3 (ANGPTL3), and methods of use” (Arrowhead Pharmaceuticals, Inc., priority 2017, dated 2026).
# “And” between values parts separate entries of the source, which are not always exact repeats. Identical values can stand only once. In the oligonucleotide strings, read from the 5' end, every base follows the letter of its sugar. An asterisk marks phosphorothioate; unmarked linkages are phosphodiester. Other units and linkages are bracketed, terminal groups are in braces. A string of capitals states the bases alone. {NAG37} = tridentate N-acetyl-galactosamine targeting ligand, structure (NAG37)s; [invAb] = inverted abasic unit; m = 2'-O-methyl; f = 2'-fluoro
# Tests used:
# [1] = system: ANGPTL3 gene; assay: Example 4: serum LDL in mice; type: in vivo, C57bl/6 mice; details: for Avg LDL, normalized to pre-treatment and control: serum, n=3
# Experimental: (§1) To assess the in vivo activity of ANGPTL3 RNAi agents that are designed to target additional positions on the ANGPTL3 gene, six- to eight-week-old female C57bl/6 mice were used. Pre-dose serum samples were taken at day −1 after a four hour fast. At day 1, each mouse was given a single subcutaneous administration of 200 μl containing either 1 mg/kg (mpk) or 0.5 mg/kg (mpk) of an ANGPTL3 RNAi agent in D5W (dextrose in 5% water), or control (D5W) with no RNAi agent, according to the dosing groups recited in Table 17.
# (§2) Each of the RNAi agents included a modified sequence and an N-acetyl-galactosamine-containing targeting ligand conjugated to the 5′ terminal end of the sense strand. (See Tables 3, 4, and 5 for modified sequences and targeting ligand structures). The injections were performed between the skin and muscle (i.e. subcutaneous injections) into the loose skin over the neck and shoulder area. Three (3) mice in each group were tested (n=3). Serum was collected on days 8, 15, 22, 29, and day 43 (Groups 1-3, 9, and 11-13 only). Mice were fasted for four hours prior to each collection. ANGPTL3 protein levels in serum were measured by ELISA assay (R&D Systems), according to the manufacturer's recommendations. Triglycerides, high-density lipoprotein (HDL), and total cholesterol in serum were measured on a Cobas® Integra 400 (Roche Diagnostics), according to the manufacturer's recommendations.
# (§3) The ANGPTL3 protein levels, triglyceride levels, HDL levels, and total cholesterol levels for each animal were normalized. For normalization, the level of ANGPTL3 protein, triglyceride, HDL, and total cholesterol, respectively, for each animal at a time point, was divided by the pre-treatment level of expression in that animal (in this case at day −1) to determine the ratio of expression “normalized to pre-treatment.” Expression at a specific time point was then normalized to the D5W control group by dividing the “normalized to pre-treatment” ratio for an individual animal by the mean “normalized to pretreatment” ratio of all mice in the D5W control group.
# [2] = system: ANGPTL3 gene; assay: Example 3: serum total cholesterol in mice; type: in vivo
# Experimental: as §1, with “target” for “target additional”, “positions 921 and 922” for “positions”, “(mpk)” for “(mpk) or 0.5 mg/kg (mpk)”, “12.” for “17.”
# as §2, with “Serum was collected on days 8, 15, 22, 29, and day 43 (Groups 1-3, 9, and 11-13 only).” left out
# as §3
# [3] = system: ANGPTL3 gene; assay: Example 3: serum HDL in mice; type: in vivo
# Experimental: as §1, with “target” for “target additional”, “positions 921 and 922” for “positions”, “(mpk)” for “(mpk) or 0.5 mg/kg (mpk)”, “12.” for “17.”
# as §2, with “Serum was collected on days 8, 15, 22, 29, and day 43 (Groups 1-3, 9, and 11-13 only).” left out
# as §3
# [4] = system: ANGPTL3 protein; assay: Example 5: serum ANGPTL3 protein by ELISA in cynomolgus monkeys; type: in vivo, cynomolgus macaque (Macaca fascicularis); details: for Avg ANGPTL3 protein normalized to pre-treatment, individual animal / Avg ANGPTL3 protein normalized to pre-treatment, by group: 3.0 mg/kg single SC injection on day 1, serum; for Avg ANGPTL3 protein normalized to pre-treatment, by group: group average n=2; for reduction in ANGPTL3 protein compared to pre-treatment: all measured time points
# Experimental: ANGPTL3 RNAi agents were evaluated in cynomolgus monkeys. On day 1, cynomolgus macaque (Macaca fascicularis) primates (also referred to herein as “cynos”) were administered a single subcutaneous injection of 0.3 mL/kg (approximately 2-3 mL volume, depending on animal mass) containing 3.0 mg/kg of ANGPTL3 RNAi agent AD05308 or AD05418, formulated in saline.
# Two (2) cynos in each group were tested (n=2). Blood samples were drawn and serum samples were analyzed on days −37 (pre-dose), −15 (pre-dose), and −1 (pre-dose), 8, 16, 23, 30, and 37. Cynos were fasted overnight prior to each collection. ANGPTL3 protein levels in serum were measured by ELISA assay (R&D Systems), according to the manufacturer's recommendations. The ANGPTL3 protein levels were normalized. For normalization, the level of ANGPTL3 protein for each animal at a time point, was divided by the average pre-treatment level of expression in that animal (in this case at days −37, −15, and −1) to determine the ratio of expression “normalized to pre-treatment.”
# [5] = Day 8, 1.0 mg/kg single SC injection on day 1
# [6] = Day 15, 1.0 mg/kg single SC injection on day 1
# [7] = Day 22, 1.0 mg/kg single SC injection on day 1
# [8] = Day 29, 1.0 mg/kg single SC injection on day 1
# [9] = Day 43, 1.0 mg/kg single SC injection on day 1
# [10] = Day 8, 1.0 mg/kg single subcutaneous dose on day 1, female C57bl/6 mice
# [11] = Day 15, 1.0 mg/kg single subcutaneous dose on day 1, female C57bl/6 mice
# [12] = Day 22, 1.0 mg/kg single subcutaneous dose on day 1, female C57bl/6 mice
# [13] = Day 29, 1.0 mg/kg single subcutaneous dose on day 1, female C57bl/6 mice
# [14] = single 3.0 mg/kg subcutaneous, cynomolgus monkeys
# [15] = Day 16, single 3.0 mg/kg subcutaneous, cynomolgus monkeys, 3 mg/kg
# [16] = day 37, single 3.0 mg/kg subcutaneous, cynomolgus monkeys
Substance,"Avg LDL, normalized to pre-treatment and control [1, 5]","Avg LDL, normalized to pre-treatment and control [1, 6]","Avg LDL, normalized to pre-treatment and control [1, 7]","Avg LDL, normalized to pre-treatment and control [1, 8]","Avg LDL, normalized to pre-treatment and control [1, 9]","Avg Total Chol (Average Total Cholestrol Normalized to Pre-Treatment and Control) [2, 10]","Avg Total Chol (Average Total Cholestrol Normalized to Pre-Treatment and Control) [2, 11]","Avg Total Chol (Average Total Cholestrol Normalized to Pre-Treatment and Control) [2, 12]","Avg Total Chol (Average Total Cholestrol Normalized to Pre-Treatment and Control) [2, 13]","Avg HDL (Average HDL Normalized to Pre-Treatment and Control) [3, 10]","Avg HDL (Average HDL Normalized to Pre-Treatment and Control) [3, 11]","Avg HDL (Average HDL Normalized to Pre-Treatment and Control) [3, 12]","Avg HDL (Average HDL Normalized to Pre-Treatment and Control) [3, 13]","Avg ANGPTL3 protein normalized to pre-treatment, individual animal ([4]; Day 8, Cyno A)","Avg ANGPTL3 protein normalized to pre-treatment, individual animal ([4]; Day 8, Cyno B)","Avg ANGPTL3 protein normalized to pre-treatment, by group ([4]; Day 8)","Avg ANGPTL3 protein normalized to pre-treatment, individual animal ([4]; Day 16, Cyno A)","Avg ANGPTL3 protein normalized to pre-treatment, individual animal ([4]; Day 16, Cyno B)","Avg ANGPTL3 protein normalized to pre-treatment, by group ([4]; Day 16)","Avg ANGPTL3 protein normalized to pre-treatment, individual animal ([4]; Day 23, Cyno A)",other results
"AD05488: RNAi agent duplex: antisense AM07235-AS, sense AM07234-SS (antisense mU*fA*mC*fUmGfAmUfCmAfAmAfUmAfUmGfUmUfGmAfG*mC; sense {NAG37}*[invAb]*mGmCmUmCmAmAmCmAfUfAfUmUmUmGmAmUmCmAmGmUmA*[invAb])",0.936,0.714,0.811,0.801,0.902,–,–,–,–,–,–,–,–,–,–,–,–,–,–,–,"LDL levels reduced ([1]; day 29, single 1 mg/kg subcutaneous, C57bl/6 mice): ~20%"
"AD05308: RNAi agent duplex: antisense AM07003-AS, sense AM07002-SS (chain 1 mU*fG*mU*fUmGfAmAfUmUfAmAfUmGfUmCfCmAfUmGfG*mA; chain 2 {NAG37}*[invAb]*mUmCmCmAmUmGmGmAfCfAfUmUmAmAmUmUmCmAmAmCmA*[invAb])",0.842,0.688,0.829,0.897,1.033,0.872,0.768,1.048,0.978,0.838,0.754,0.739,0.953,0.545,0.287,0.416,0.423,0.471,0.447,0.832,"Avg ANGPTL3 protein normalized to pre-treatment, individual animal ([4]; Day 23, Cyno B): 0.465; Avg ANGPTL3 protein normalized to pre-treatment, by group ([4]; Day 23): 0.649; Avg ANGPTL3 protein normalized to pre-treatment, individual animal ([4]; Day 30, Cyno A): 0.722; Avg ANGPTL3 protein normalized to pre-treatment, individual animal ([4]; Day 30, Cyno B): 0.572; Avg ANGPTL3 protein normalized to pre-treatment, by group ([4]; Day 30): 0.647; Avg ANGPTL3 protein normalized to pre-treatment, individual animal ([4]; Day 37, Cyno A): 0.709; Avg ANGPTL3 protein normalized to pre-treatment, individual animal ([4]; Day 37, Cyno B): 0.421; Avg ANGPTL3 protein normalized to pre-treatment, by group ([4]; Day 37): 0.565; reduction in ANGPTL3 protein compared to pre-treatment [4, 14]: reduction; Avg LDL, normalized to pre-treatment and control ([1]; Day 8, 0.5 mg/kg single SC injection on day 1): 0.965; Avg LDL, normalized to pre-treatment and control ([1]; Day 15, 0.5 mg/kg single SC injection on day 1): 0.830"
"AD05307: RNAi agent duplex: antisense AM07001-AS, sense AM07000-SS (chain 1 mU*fU*mU*fGmAfAmUfUmAfAmUfGmUfCmCfAmUfGmGmG*mC; chain 2 {NAG37}*[invAb]*mGmCmCmCmAmUmGmGfAfCfAmUmUmAmAmUmUmCmAmAmA*[invAb])",–,–,–,–,–,0.940,0.840,0.948,1.088,0.916,0.856,0.913,1.053,–,–,–,–,–,–,–,–
"AD05418: RNAi agent duplex: antisense AM07159-AS, sense AM07158-SS (antisense mU*fU*mU*fGmAfAmUfUmAfAmUfGmUfCmCfAmUfGmGfG*mU; sense {NAG37}*[invAb]*mAmCmCmCmAmUmGmGfAfCfAmUmUmAmAmUmUmCmAmAmA*[invAb])",1.044,0.841,1.142,0.966,0.921,0.783,0.842,0.916,0.953,0.766,0.823,0.910,0.916,0.585,0.503,0.544,0.358,0.309,0.334,0.260,"normalized ANGPTL3 protein level, individual animals [4, 15]: 0.358 and 0.309; reduction in ANGPTL3 protein, individual animals [4, 15]: approximately 64% and ~69%; Avg ANGPTL3 protein normalized to pre-treatment, individual animal ([4]; Day 23, Cyno B): 0.340; Avg ANGPTL3 protein normalized to pre-treatment, by group ([4]; Day 23): 0.300; Avg ANGPTL3 protein normalized to pre-treatment, individual animal ([4]; Day 30, Cyno A): 0.311; Avg ANGPTL3 protein normalized to pre-treatment, individual animal ([4]; Day 30, Cyno B): 0.467; Avg ANGPTL3 protein normalized to pre-treatment, by group ([4]; Day 30): 0.389; Avg ANGPTL3 protein normalized to pre-treatment, individual animal ([4]; Day 37, Cyno A): 0.212; Avg ANGPTL3 protein normalized to pre-treatment, individual animal ([4]; Day 37, Cyno B): 0.328; Avg ANGPTL3 protein normalized to pre-treatment, by group ([4]; Day 37): 0.270; reduction in ANGPTL3 protein compared to pre-treatment [4, 14]: reduction; average ANGPTL3 protein normalized to pre-treatment [4, 16]: 0.270; average reduction in ANGPTL protein levels [4, 16]: approximately 73%"
